Drawing on ChEMBL document CHEMBL5346899, “PKM2/PDK1 dual-targeted shikonin derivatives restore the sensitivity of EGFR-mutated NSCLC cells to gefitinib by remodeling glucose metabolism” (Eur J Med Chem, 2023), this text covers Activity and IC50 for one molecule.

Test [1] relates to HCC827. Briefly: Induction of intracellular ROS accumulation in human HCC827 cells. In kind it is functional, cell-based.
For test [2], the system named is NCI-H1299. Briefly: Induction of apoptosis in human NCI-H1299 cells assessed as late apoptotic cells at 2 micromol/L incubated for 24 hrs by Annexin V-FITC/PI staining based analysis (reference value: 14.9%). In kind it is functional. The conditions noted are these: dose 2 µmol/L, at 2 µM.
The subject of test [3] is NCI-H1975. Briefly: Induction of apoptosis in human NCI-H1975 cells assessed as regulation of Caspase-3 expression by Western blot analysis. In kind it is functional, cell-based. On the technique in general: A western blot detects proteins with antibodies after separation by electrophoresis.
The test system of test [4] is A549. Briefly: Induction of apoptosis in human A549 cells assessed as early apoptotic cells at 1 micromol/L incubated for 24 hrs by Annexin V-FITC/PI staining based analysis (reference value: […]%). The conditions noted are these: dose 1 µmol/L. Type of test: functional.
The subject of test [5] is NCI-H1975. Briefly: Induction of apoptosis in human NCI-H1975 cells with siRNA mediated […] knockdown assessed as late apoptotic cells at 1 micromol/L incubated for 24 hrs by Annexin V-FITC/PI staining based analysis (reference value: 6.25%). Type of test: functional. As to conditions: dose 1 µmol/L, at 1 µM.
Test [6] has as its system NCI-H1975. Briefly: Induction of apoptosis in human NCI-H1975 cells transfected with siRNA assessed as late apoptotic cells at 1 micromol/L incubated for 24 hrs by Annexin V-FITC/PI staining based analysis (reference value: 4.03%). Type of test: functional. As to conditions: dose 1 µmol/L, at 1 µM.
Test [7] has as its system NCI-H1975. Briefly: Induction of apoptosis in human NCI-H1975 cells assessed as regulation of cleaved PARP expression by Western blot analysis. Type of test: functional, cell-based.
The test system of test [8] is NCI-H1975. Briefly: Induction of apoptosis in human NCI-H1975 cells assessed as regulation of cytochrome c expression by Western blot analysis. Type of test: functional, cell-based.
For test [9], the system named is NCI-H1975. Briefly: Induction of apoptosis in human NCI-H1975 cells assessed as live cells at 0.5 micromol/L incubated for 24 hrs in presence of gefitinib by Annexin V-FITC/PI staining based analysis (reference value: 88.7%). Type of test: functional. The conditions noted are these: dose 0.5 µmol/L, at 0.5 µM.
Test [10] relates to A549. Briefly: Induction of apoptosis in human A549 cells assessed as early apoptotic cells at 2 micromol/L incubated for 24 hrs by Annexin V-FITC/PI staining based analysis (reference value: […]%). In kind it is functional. The conditions noted are these: dose 2 µmol/L.
Test [11] concerns the target Pyruvate kinase PKM (Homo sapiens, UniProt P14618). Briefly: Activation of PKM2 in human HCC827 cells at 1 to 2 micromol/L by Western blot analysis. The conditions noted are these: filed as activator, dose 1-2 µmol/L. In kind it is cell-based.
Test [12] concerns NCI-H1975. Briefly: Induction of apoptosis in human NCI-H1975 cells assessed as early apoptotic cells at 2 micromol/L incubated for 24 hrs by Annexin V-FITC/PI staining based analysis (reference value: 1.88%). Type of test: functional. As to conditions: dose 2 µmol/L, at 2 µM.
For test [13], the system named is NCI-H1975. Briefly: Induction of apoptosis in human NCI-H1975 cells assessed as regulation of cleaved caspase-8 expression by Western blot analysis. In kind it is functional, cell-based.
Test [14] relates to NCI-H1299. Briefly: Induction of apoptosis in human NCI-H1299 cells assessed as late apoptotic cells at 1 micromol/L incubated for 24 hrs by Annexin V-FITC/PI staining based analysis (reference value: 14.9%). The conditions noted are these: dose 1 µmol/L, at 1 µM. Type of test: functional.
The subject of test [15] is A549. Briefly: Induction of apoptosis in human A549 cells assessed as late apoptotic cells at 1 micromol/L incubated for 24 hrs by Annexin V-FITC/PI staining based analysis (reference value: 3.18%). Type of test: functional. The conditions noted are these: dose 1 µmol/L, at 1 µM.
The test system of test [16] is NCI-H1299. Briefly: cells. In kind it is functional, cell-based. As to conditions: Homo sapiens, NCI-H1299, 24 h.
Description: Antiproliferative activity against human NCI-H1299 cells assessed as inhibition of cell growth incubated for 24 hrs by CCK-8 assay
The subject of test [17] is NCI-H1975. Briefly: Induction of apoptosis in human NCI-H1975 cells assessed as regulation of cleaved Caspase-3 expression by Western blot analysis. Type of test: functional, cell-based.
Test [18] deals with NCI-H1975. Briefly: Induction of apoptosis in human NCI-H1975 cells assessed as live cells at 0.5 micromol/L incubated for 24 hrs by Annexin V-FITC/PI staining based analysis (reference value: 88.7%). Type of test: functional. The conditions noted are these: dose 0.5 µmol/L, at 0.5 µM.
In test [19] the test system is NCI-H1975. Briefly: Induction of apoptosis in human NCI-H1975 cells assessed as dead cells at 0.5 micromol/L incubated for 24 hrs by Annexin V-FITC/PI staining based analysis (reference value: 0.103%). Type of test: functional. As to conditions: dose 0.5 µmol/L, at 0.5 µM.
Test [20] has as its system HCC827. Briefly: Induction of apoptosis in human HCC827 cells assessed as late apoptotic cells at 2 micromol/L incubated for 24 hrs by Annexin V-FITC/PI staining based analysis (reference value: 8.42%). Type of test: functional. The conditions noted are these: dose 2 µmol/L, at 2 µM.
Test [21] has as its system NCI-H1975. Briefly: Antitumor activity against human NCI-H1975 cells xenografted in athymic nu/nu mouse assessed as induction of apoptosis in tumor at 2.4 to 4.8 mg/kg, ip administered every 2 days for 11 days by TUNEL assay. Type of test: functional, organism-based. As to conditions: dose 2.4-4.8 mg/kg, time 11.0 day. In general terms: A xenograft is tissue or cells of one species grown in another, often human tumour cells in immunodeficient mice.

In test [22] the test system is NCI-H1975. Briefly: Antiproliferative activity against human NCI-H1975 cells assessed as inhibition of clone formation rate. In kind it is functional, cell-based.
Test [23] concerns NCI-H1975. Briefly: Upregulation of PDH protein expression in human NCI-H1975 cells at 1 to 2 micromol/L by Western blot analysis. In kind it is functional, cell-based. The conditions noted are these: dose 1-2 µmol/L.
Test [24] has as its system HCC827. Briefly: Upregulation of PDH protein expression in human HCC827 cells at 1 to 2 micromol/L by Western blot analysis. The conditions noted are these: dose 1-2 µmol/L. Type of test: functional, cell-based.

One may read the pIC50 as the IC50 on a negative log10 scale, so that one unit is a factor of ten. A low value points to a large IC50.

Molecules are shown by their SMILES. pIC50: −log10 of the molar value. Active and inactive are the calls of the source. No cut-off for these calls is given here.

Sequence of Pyruvate kinase PKM (P14618 2-531 limits assumed): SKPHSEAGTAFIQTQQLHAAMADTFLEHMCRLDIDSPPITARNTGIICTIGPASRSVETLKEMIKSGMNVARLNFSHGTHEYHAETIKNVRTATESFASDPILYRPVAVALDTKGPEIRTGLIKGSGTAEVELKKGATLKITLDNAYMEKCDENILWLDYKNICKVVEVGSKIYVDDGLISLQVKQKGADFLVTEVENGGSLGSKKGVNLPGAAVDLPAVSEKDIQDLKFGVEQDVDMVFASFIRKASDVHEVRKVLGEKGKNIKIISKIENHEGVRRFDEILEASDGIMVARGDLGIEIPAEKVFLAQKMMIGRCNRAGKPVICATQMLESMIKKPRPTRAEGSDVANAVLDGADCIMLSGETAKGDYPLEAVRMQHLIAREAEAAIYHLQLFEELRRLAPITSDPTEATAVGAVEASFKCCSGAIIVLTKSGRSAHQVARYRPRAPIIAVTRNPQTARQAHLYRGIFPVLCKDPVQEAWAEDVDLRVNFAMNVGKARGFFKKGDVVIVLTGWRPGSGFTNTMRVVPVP

For the molecule `COC(=O)[C@H](CS[C@H](CC=C(C)C)C1=CC(=O)c2c(O)ccc(O)c2C1=O)NC(=O)CCCC[C@@H]1CCSC(c2ccccc2C)S1` (some centres undefined), the outcome in test [1], in test [3], in test [7], in test [8], in test [11] and in [13] was Active. Also, the result in test [17], in test [21], in test [23] and in test [24] was Active. Also, the Activity is given as 24.5% in test [2]; 8.74% in test [4]; 4.95% in test [5]; 7.86% in test [6]; 57.5% in [9]; 11.8% in test [10]. For the same molecule, the Activity was found to be 22.2% in [12]; 16.7% in test [14]; 5.33% in test [15]; 87.3% in [18]; 0% in [19]; 41.1% in test [20]. For the same molecule, the Activity result in [22] is “Dose-Dependent Effect”. In addition, in [16], the pIC50 was 5.26.
